Our source for the Activity values is ChEMBL document CHEMBL2074109, “ATP-Dependent efflux of CPT-11 and SN-38 by the multidrug resistance protein (MRP) and its inhibition by PAK-104P” (Mol Pharmacol, 1999).

The target in this data set is Multidrug resistance-associated protein 1 (Homo sapiens, UniProt P33527). Put plainly: TP_TRANSPORTER: intracellular accumulation in KB-3-1 and MRP1-expressing KB-3-1 cells. Type of data set: functional, cell-based, KB-3-1; KB/MRP. As to conditions: kb/mrp.
Chain of Multidrug resistance-associated protein 1 (P33527 whole entry): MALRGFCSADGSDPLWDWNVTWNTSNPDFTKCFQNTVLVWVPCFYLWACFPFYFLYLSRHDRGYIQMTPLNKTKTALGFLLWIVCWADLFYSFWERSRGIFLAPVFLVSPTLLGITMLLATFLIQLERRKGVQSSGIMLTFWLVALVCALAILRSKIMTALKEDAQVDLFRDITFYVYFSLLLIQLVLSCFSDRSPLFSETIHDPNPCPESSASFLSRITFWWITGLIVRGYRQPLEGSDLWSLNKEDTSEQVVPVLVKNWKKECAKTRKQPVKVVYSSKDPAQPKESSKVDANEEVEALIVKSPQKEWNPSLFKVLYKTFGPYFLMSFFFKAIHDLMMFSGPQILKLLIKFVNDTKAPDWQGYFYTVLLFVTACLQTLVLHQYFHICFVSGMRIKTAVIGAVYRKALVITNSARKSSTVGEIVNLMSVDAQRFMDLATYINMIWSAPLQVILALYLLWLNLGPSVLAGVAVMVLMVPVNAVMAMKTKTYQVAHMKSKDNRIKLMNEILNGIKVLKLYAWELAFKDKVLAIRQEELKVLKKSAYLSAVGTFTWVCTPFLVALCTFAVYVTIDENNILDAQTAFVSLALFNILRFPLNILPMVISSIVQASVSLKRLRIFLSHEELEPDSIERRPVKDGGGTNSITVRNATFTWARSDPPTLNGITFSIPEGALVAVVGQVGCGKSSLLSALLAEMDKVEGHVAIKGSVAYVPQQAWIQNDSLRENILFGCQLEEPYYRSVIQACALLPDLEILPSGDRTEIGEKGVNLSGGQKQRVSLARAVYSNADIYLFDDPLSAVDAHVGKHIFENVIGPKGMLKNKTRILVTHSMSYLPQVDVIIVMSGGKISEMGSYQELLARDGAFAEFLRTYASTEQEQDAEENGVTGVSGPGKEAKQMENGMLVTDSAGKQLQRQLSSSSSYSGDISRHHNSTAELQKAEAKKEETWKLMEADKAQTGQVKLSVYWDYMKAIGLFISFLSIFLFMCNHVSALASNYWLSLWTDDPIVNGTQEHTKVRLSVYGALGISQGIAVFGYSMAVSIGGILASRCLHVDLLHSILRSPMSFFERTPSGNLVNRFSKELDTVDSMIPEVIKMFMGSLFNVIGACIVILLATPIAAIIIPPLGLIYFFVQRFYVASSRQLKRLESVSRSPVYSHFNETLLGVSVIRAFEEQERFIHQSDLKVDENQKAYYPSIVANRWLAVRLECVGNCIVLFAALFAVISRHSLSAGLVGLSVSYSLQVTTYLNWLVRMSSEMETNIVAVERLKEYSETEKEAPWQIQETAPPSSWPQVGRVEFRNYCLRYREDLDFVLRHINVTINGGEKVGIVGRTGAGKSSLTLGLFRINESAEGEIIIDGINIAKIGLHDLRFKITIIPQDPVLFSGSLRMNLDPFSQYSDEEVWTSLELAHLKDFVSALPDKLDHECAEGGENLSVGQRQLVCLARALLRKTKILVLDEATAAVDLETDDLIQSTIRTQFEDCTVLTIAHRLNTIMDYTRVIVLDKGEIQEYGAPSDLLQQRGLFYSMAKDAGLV

Consider `CCc1c2c(nc3ccc(OC(=O)N4CCC(N5CCCCC5)CC4)cc13)-c1cc3c(c(=O)n1C2)COC(=O)[C@]3(O)CC` [IRINOTECAN], for which the Activity entry is “substrate [+]”.
The same measure for `CCc1c2c(nc3ccc(O)cc13)-c1cc3c(c(=O)n1C2)COC(=O)[C@]3(O)CC` [7-ETHYL-10-HYDROXYCAMPTOTHECIN]: “substrate [+]”.
